Where two headings read alike, the source gives them in different places.
Tests used:
[1] = system: BAC and ESCC cell lines versus the benign OE cell line (CPA); assay: 96-well drug washout/outgrowth anti-proliferative assay (resazurin, day 6); format: cell-based; conditions: all timepoints
Description: Tumour sensitivity towards Plk1 inhibitors was studied in a panel of oesophageal (OE) cell lines. The cell lines used were: a benign Barrett's (CPA), two Barrett's adenocarcinoma (OE19 and OE33; Sigma Aldrich), and two oesophageal squamous cell carcinoma cell lines (OE21, ECACC; and KYSE-410, ECACC).
The anti-proliferative effect of Plk1 inhibitors was studied in a 96-well format drug washout/outgrowth assay. Cells were seeded at 1.5-2.5×10^3 cells per well in 96-well plates and left to incubate overnight at 37° C., 5% CO2, before addition of a range of concentrations of each of the different Plk1 inhibitors. Cells were incubated with the compounds for various periods of time, ranging from 3 to 24 hours; media containing the compounds was then removed from the cells and replaced with drug-free media until the end of the assay. The cell viability was evaluated on day 6 using a standard resazurin-based assay according to manufacturer's instructions (AlamarBlue, AbD Serotec, Oxford, UK). The IC50 values were determined using IDBS software.

[2] = mouse, dose 35 mg/kg, Rudolph et al.; cited from earlier work
[3] = Mouse PK data for selected compounds of the invention; format: in vivo; conditions: dose 1 mg/kg; for AUC / Cmax: plasma
Description: The plasma concentration is measured using standard LC-MS/MS analysis based on the following method. Calibration and control samples are prepared as follows from a 500 μg/mL solution of compound in methanol/DMSA 50/50 v/v. This stock solution is used to prepare diluted working standards of the test items with concentrations from 200 ng/ml to 500,000 ng/ml. The solutions are diluted with methanol and stored at +4° C. in glass vials when not in use. The working solutions are used to prepare calibration standards in control plasma, with a final concentration of between 10 ng/ml and 5000 ng/ml per 100 microlitres of plasma. These standards are prepared on day one of analysis and re-prepared as necessary on each analytical occasion. Internal standards are dissolved in methanol/DMSA 50/50 v/v and diluted to 1 μg/mL in acetonitrile for a working solution.
Plasma samples are extracted by the following method. Transfer 50 microlitres of each calibration, quality control and test sample to a 96-well mictrotitre plate. Add 200 microlitres of a 1 microgram per millilitre internal standard solution in acetonitrile to all samples except for a double blank. 200 microlitres of acetonitrile is added to the double blank. Samples are briefly vortex mixed, and centrifuged at 2128 g for 30 minutes. Recoverable supernatant is transferred to an appropriate well of a microtitre plate and extracts are evaporated with oxygen free nitrogen at a gas temperature of about 40° C. Extracts are reconstituted in 200 μL of mobile phase and mixed well. The plate is sealed with silicone-based pre-pierced web seal and used for LC-MS/MS analysis.
LC-MS/MS analysis can be performed using the following chromatography conditions.

| Cl_obs [3] [L/h/kg] | HL_Lambda_z [3] [h] | Vz_obs [3] [L/kg] | AUC [3] [µg·h/mL] | Cmax [3] [µg/mL] | Structure (SMILES) | differentiation between the cancerous and the benign cell lines [1] | Cl_obs [2] [L/h/kg] | Cmax [2] [µg/mL] | HL_Lambda_z [2] [h] | Vz_obs [2] [L/kg] |
| --- | --- | --- | --- | --- | --- | --- | --- | --- | --- | --- |
| – | – | – | – | – | CC[C@@H]1C(=O)N(C)c2cnc(Nc3ccc(C(=O)NC4CCN(C)CC4)cc3OC)nc2N1C1CCCC1 [BI2536] | little or no differentiation | – | – | – | – |
| – | – | – | – | – | CC[C@@H]1C(=O)N(C)c2cnc(Nc3ccc(C(=O)N[C@H]4CC[C@H](N5CCN(CC6CC6)CC5)CC4)cc3OC)nc2N1C(C)C [BI6727] | – | 0.6 | 4.39 | 46 | 7.6 |
| 1.273 | 2.89 | 5.304 | 0.631 | 0.478 | COc1cc(C(=O)N[C@H]2CC[C@H](N3CCN(CC4CC4)CC3)CC2)ccc1Nc1ncc2c(n1)N(C1CCCC1)CC1(CC1)C(=O)N2C [Compound A1, 4-(9′-cyclopentyl-5′-methyl-6′-oxo-5′,6′,8′,9′-tetrahydrospiro[cyclopropane-1,7′-pyrimido[4,5-b][1,4]diazepine]-2′-ylamino)-N-((trans)-4-(4-(cyclopropylmethyl)piperazin-1-yl)cyclohexyl)-3-methoxybenzamide] | – | – | – | – | – |
| 2.445 | 1.97 | 6.937 | 0.377 | 0.453 | COc1cc(C(=O)N[C@H]2CC[C@H](N3CCN(C)CC3)CC2)ccc1Nc1ncc2c(n1)N(C1CCCC1)CC1(CC1)C(=O)N2C [Compound A7, 4-(9′-cyclopentyl-5′-methyl-6′-oxo-5′,6′,8′,9′-tetrahydrospiro[cyclopropane-1,7′-pyrimido[4,5-b][1,4]diazepine]-2′-ylamino)-N-((trans)-4-(4-methylpiperazin-1-yl)cyclohexyl)-3-methoxybenzamide] | – | – | – | – | – |
| 5.988 | 0.78 | 6.713 | 0.164 | 0.405 | COc1cc(C(=O)NC2CCN(C3CCOCC3)CC2)ccc1Nc1ncc2c(n1)N(C1CCCC1)CCC(=O)N2C [Compound A13, 4-(9-cyclopentyl-5-methyl-6-oxo-6,7,8,9-tetrahydro-5H-pyrimido[4,5-b][1,4]diazepin-2-ylamino)-3-methoxy-N-[1-(tetrahydro-pyran-4-yl)-piperidin-4-yl]-benzamide] | – | – | – | – | – |

Source: patent US20150320762A1, “TREATMENT OF PROLIFERATIVE DISEASES WITH PYRIMIDODIAZEPINONES” (Cyclacel limited, priority 2012, published 2015)
